pIC50: −log10 of the molar value. Structures can show the parent of a compound that is named as a salt.
Experiments:
Assay type in all cases: cell-based, Human
[1] = tested on: HT 29 (Colon adenocarcinoma); assay: In vitro cytotoxicity, microculture tetrazolium (MTT) assay, HT29; conditions: Homo sapiens, HT-29, 48 h with compound, further 48 h, Table 1
Procedure: (§1) The microculture tetrazolium assay was used to test in vitro cytotoxicity. This assay is described in Plumb, J. A. et al., 1989 Cancer Research 49, 4435-4440, which is herein incorporated by reference. The cytotoxicity of compounds towards tumor cells is measured in vitro using the assay. This assay method is based upon the ability of live, but not dead cells to reduce the yellow water soluble dye 3-(4,5-dimethylthiazol-2-yl)-2,5-diphenyltetrazolium bromide (MTT) to its water insoluble purple formazan product.
(§2) Human Tumor Cell lines, used were:
HT 29 (Colon adenocarcinoma) ATCC catalog #HTB-38.
(§3) The cells were maintained in exponential growth in culture in minimal essential media (MEM) supplemented with non-essential amino acids, and containing 15% (v/v) fetal. bovine serum, 5 mM L-glutamine, 1 mM sodium pyruvate, and 0.1 U/ml insulin. All cell lines were grown at 37° C. in an atmosphere of 5% CO2 in air.
(§4) MTT: 2 mg/ml in phosphate buffered saline (stable at 4° C. in dark for 1 week).
(§5) Sorensen's buffer: 0.1M glycine/NaOH, pH 10.5, containing 0.1M NaCl.
(§6) Test compounds: 20 mM in DMSO and diluted to a final concentration of 200 μM in culture medium before use.
(§7) For each assay, doxorubicin is included as an inter-assay standard. This allows us to monitor the behaviour of the assay in general, and in particular, to check that the SKVLB line has maintained its resistant phenotype.
(§8) The assays are carried out in 96-well (8 well×12 well) microtiter plates. Serial dilutions of the compound are tested along the length of the plate. A 1:3 serial dilution of compound in culture medium covers a concentration range from 100 μM to 1.7 nM. Each concentration of compound is tested in quadruplet, allowing two compounds to be tested per plate. Wells containing no cells (blank) and cells with no test compound (control) are included on each plate.
(§9) Cells are plated out in 100 μl of culture medium in the microtiter plates at a density of around 1,500-4,000 cells per well. The plates are incubated overnight to allow the cells to become adherent after which the test compound is added (100 μl of appropriate dilution per well). The cells are incubated with test compound at 37° C. for 48 h after which the compound is replaced with fresh medium. After a further 48 h incubation at 37° C., 50 μl of MTT solution (2 mg/ml) is added to each well. The plates are incubated in the dark for 4 h at 37° C. after which the medium is removed. The MTT formazan product is extracted from the cells by the addition of 200 μl DMSO followed by 50 μl of Sorensen's buffer. The plates are shaken briefly and the absorbance at 570 nm is read using a Molecular Devices UV max plate reader. Curves are fit to the MTT assay data using a four parameter logistic equation, and the data are normalized to fit a 0% to 100% survival scale.

[2] = tested on: SKOV3 (Ovarian adenocarcinoma); assay: In vitro cytotoxicity, microculture tetrazolium (MTT) assay, SKOV3; conditions: Homo sapiens, SK-OV-3; SKOV3 ovarian adenocarcinoma; 48 h with compound, further 48 h, MTT; Table 1
Procedure: as §1, §2
SKOV3 (Ovarian adenocarcinoma)--provided by Dr. V. Ling, Ontario Cancer Institute.
as §3, §4, §5, §6, §7, §8, §9

Lox (Melanoma) = assay: In vitro cytotoxicity, microculture tetrazolium (MTT) assay, LOX; conditions: Homo sapiens, 48 h with compound, further 48 h, Table 1
Procedure: as §1, §2
Lox (Melanoma)--Southern Research Institute.
as §3, §4, §5, §6, §7, §8, §9

[3] = tested on: SKVLB (Ovarian; multidrug resistant); assay: In vitro cytotoxicity, microculture tetrazolium (MTT) assay, SKVLB; conditions: Homo sapiens; SKVLB multidrug resistant ovarian; 48 h with compound, further 48 h, MTT; Table 1
Procedure: as §1, §2
SKVLB (Ovarian; multidrug resistant)--Dr. V. Ling, Ontario Cancer Institute.
as §3, §4, §5, §6, §7, §8, §9

[4] = tested on: T47D (Ductal carcinoma of breast); assay: In vitro cytotoxicity, microculture tetrazolium (MTT) assay, T47D; conditions: Homo sapiens, 48 h with compound, further 48 h, Table 1
Procedure: as §1, §2
T47D (Ductal carcinoma of breast)--ATCC catalog #HTB-133.
as §3, §4, §5, §6, §7, §8, §9

Row | SMILES | pIC50 [1] | pIC50 [2] | pIC50 (Lox (Melanoma)) | pIC50 [3] | pIC50 [4]
1 | CC(C)[C@@H]1CC2=C(C(=O)c3ccccc3C2=O)[C@@H](O[C@H]2C[C@H](NC(=O)C(F)(F)F)[C@H](O)[C@H](C)O2)O1 [BCH2053, (1'S, 1R, 3S)-5,10-dioxo-3-isopropyl-1-(2',3',6'-trideoxy-3'-trifluoroacetamido-L-lyxohexopyranose)-3,4,5,10-tetrahydro-1H-naphtho-[2,3-c]-pyran] | 4.85 | 5.33 | 5.49 | 4.67 | 4.91
2 | CO[C@@H]1O[C@H](C(=O)Nc2ccccc2)CC2=C1C(=O)c1ccccc1C2=O (relative stereo) [BCH2042, (1,3-cis)-anline-(1-methoxy-5,10-dioxo-3,4,5,10-tetrahydro-1H-naphtho-[2,3-c]-pyran)-3-carboxamide] | 5.92 | 5.42 | 5.65 | 4.88 | 5.10
3 | COC1OC(C(=O)Nc2ccccc2)=CC2=C1C(=O)c1ccccc1C2=O (stereo not shown) [BCH2044, 1-methoxy-3-N-anilinylcarbonyl-5,10-dioxo-5,10-dihydro-1H-naphtho-[2,3-c]-pyran] | 6.71 | 5.84 | 6.42 | 5.29 | 5.37
4 | CC(=O)C1CC2=C(CO1)C(=O)c1ccccc1C2=O (stereo not shown) [BCH1125, Methyl (5,10-dioxo-3,4,5,10-tetrahydronaphtho [2,3-C]pyran-3-yl) ketone] | < 4.00 | < 4.00 | 4.28 | 4.03 | 4.44
5 | COC1OC(C(C)=O)=CC2=C1C(=O)c1ccccc1C2=O (stereo not shown) [BCH2129, 3-Aceto-5,10-dioxo-1-methoxy-5,10-dihydro-1H-naphtho-(2,3-c)-pyran] | 5.68 | 6.44 | 6.64 | 5.97 | 6.34
6 | CC(=O)[C@H]1CC2=C(C(=O)c3ccc(O)cc3C2=O)[C@H](O[C@H]2C[C@H](NC(=O)C(F)(F)F)[C@H](O)[C@H](C)O2)O1 [BCH1180, (1'S,1S,3R)-Methyl (5,10-dioxo-1-(2',3',6'-trideoxy-3'-trifluoroacetamido-L-lyxohexopyranose)-7-hydroxy-3,4,5, 10-tetrahydro[2,3-C]pyran-3-yl) ketone] | 6.33 | 6.07 | 5.48 | 5.06 | 5.12
7 | COC(=O)[C@@H](N)COC1OC(C(C)=O)CC2=C1C(=O)c1ccccc1C2=O (mixture of isomers) [BCH1654, (1S, 2'S, 3R) and (1R, 2'S, 3S)-methyl-(1-[O-serinemethyl ester]-5,10-dioxo-3,4,5,10-tetrahydronaphtaleno[2,3-C]pyran-3-yl) ketone hydrochloride] | 5.45 | 6.15 | 5.92 | 5.43 | 5.80
8 | COCC1(COC)CC2=C(C(=O)c3ccccc3C2=O)[C@H](O[C@H]2C[C@H](NC(=O)C(F)(F)F)[C@H](O)[C@H](C)O2)O1 [BCH1697] | 4.96 | 5.43 | 5.27 | 4.88 | 4.74
9 | CC(=O)[C@@H]1CC2=C(C(=O)c3ccccc3C2=O)[C@@H](O[C@H]2C[C@H](NC(=O)C(F)(F)F)[C@H](I)[C@H](C)O2)O1 [BCH1620, (1'-S,1-R,3-S)-methyl-(1-[2',3',6'-trideoxy-3'-trifluoroacetamido-4'-iodo-L-lyxohexopyranose]-5,10-dioxo-3,4,5,10-tetrahydronaphtho-[2,3-c]-pyran-3-yl)-ketone] | 7.48 | 8.38 | 7.64 | 6.67 | 6.74
10 | CC[C@H]1CC2=C(C(=O)c3ccccc3C2=O)[C@H](O[C@H]2C[C@H](NC(=O)C(F)(F)F)[C@H](O)[C@H](C)O2)O1 [BCH2020, (1'S, 1S, 3S)-5,10-dioxo-3-ethyl-1-(2',3',6'-trideoxy-3'-trifluoroacetamido-L-lyxohexopyranose)-3,4,5,10-tetrahydro-1H-naphtho-[2,3-c]-pyran] | 4.72 | 4.95 | 5.26 | 4.59 | 5.03
11 | CC(=O)[C@H]1CC2=C(C(=O)c3ccccc3C2=O)[C@H](O[C@@H]2O[C@@H](C)[C@@H](O)[C@@H](NC(=O)C(F)(F)F)C2I)O1 (stereo partly drawn) [BCH2022, (1'S,1S,3R)-methyl-(1-[2',3',6'-trideoxy-2'-iodo-3'-trifluoroacetamido-4'-hydroxy-L-lyxohexopyranose]-5,10-dioxo-3,4,5,10-tetrahydronaphtho-[2,3-c]-pyran-3-yl) ketone] | 6.27 | 6.35 | 6.32 | 5.73 | 6.03
12 | COC(=O)[C@H](CC(C)C)NC(=O)[C@@H](N)CO[C@H]1O[C@H](C(C)=O)CC2=C1C(=O)c1ccccc1C2=O [BCH2000, (1S,2'S,3S,5'S)-Methyl-(1-O-[Serine-Leucine-Me ester]-5,10-dioxo-3,4,5,10-tetrahydro-1-H-naphtho[2,3-c]pyran-3-yl) ketone hydrochloride] | 7.42 | 7.02 | 7.04 | 5.18 | 6.47
13 | CC(=O)C1CC2=C(C(=O)c3ccccc3C2=O)C(OCC2CCCNC2)O1 (mixture of isomers) [BCH2061, Methyl-(1-O-[3-piperidinemethanol]-5,10-dioxo-3,4,5,10-tetrahydronaphthaleno-[2,3-c]pyran-3-yl) ketone hydrochloride salt] | 7.27 | 8.08 | 7.35 | 6.85 | 6.57
14 | CC(=O)O[C@@H]1[C@H](C)O[C@@H](O[C@H]2O[C@H](C(C)=O)CC3=C2C(=O)c2ccccc2C3=O)C(Br)[C@@H]1OC(C)=O (stereo partly drawn) [BCH2100, (1'S,1R,3S)-methyl-(1-[2',6'-dideoxy-3',4'-diacetoxy-2'-bromo-L-lyxohexopyranose]-5,10-dioxo-3,4,5,10-tetrahydronaphtho-[2,3-c]-pyran-3-yl) ketone] | 5.29 | 5.57 | 5.52 | 5.09 | 5.40
15 | COC(=O)C1=CC2=C(C(=O)c3ccccc3C2=O)C(OC)O1 (stereo not shown) [BCH2160, 1-methoxy-3-methoxy carbonyl-5,10-dioxo-5,10-dihydro-1H-naphtho-[2,3-c]-pyran] | 4.80 | 5.31 | 5.13 | 5.04 | 5.02
16 | Nc1nc(C2CC3=C(CO2)C(=O)c2ccccc2C3=O)cs1 (stereo not shown) [BCH1189] | 4.78 | 5.19 | 4.84 | 4.58 | 4.90
17 | CC(=O)O[C@@H]1[C@H](C)O[C@@H](O[C@@H]2O[C@@H](C(C)=O)CC3=C2C(=O)c2ccccc2C3=O)C(Br)[C@@H]1OC(C)=O (stereo partly drawn) [BCH2099, (1'S,1S,3R)-methyl-(1-[2',6'-dideoxy-3',4'-diacetoxy-2'-bromo-L-lyxohexopyranose]-5,10-dioxo-3,4,5,10-tetrahydronaphtho-[2,3-c]-pyran-3-yl) ketone] | 5.77 to 6.52 | 5.70 to 6.22 | 5.96 to 6.89 | 5.08 to 6.34 | 5.47 to 6.14

Source: patent US5606037A, “Processes antineoplastic heteronaphthoquinones” (BioChem Pharma Inc., priority 1995, dated 1997)
